One series addresses APT2 (Homo sapiens, UniProt O95372). The class given is binding.
The conditions of series [1]: cited from earlier work.
In series [2] the target is APT2 triple mutant L78I/A85S/P86Q (Homo sapiens, UniProt O95372, A85S/L78I/P86Q). The class given is biochemical.
A further series has as its target APT2-L78I (Homo sapiens, UniProt O95372, L78I). Particulars: ResOAc substrate.

APT2, sequence (O95372 whole entry): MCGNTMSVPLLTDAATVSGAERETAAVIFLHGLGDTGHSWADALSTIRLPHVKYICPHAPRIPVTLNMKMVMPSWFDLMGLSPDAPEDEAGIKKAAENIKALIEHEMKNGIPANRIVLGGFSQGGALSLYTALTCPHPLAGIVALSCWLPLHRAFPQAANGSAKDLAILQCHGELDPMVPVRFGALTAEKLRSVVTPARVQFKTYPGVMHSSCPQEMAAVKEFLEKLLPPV
APT2-L78I, sequence (O95372 whole entry L78I): as the sequence (O95372 whole entry) above, with L78I counted along it
APT2 triple mutant L78I/A85S/P86Q, sequence (O95372 whole entry L78I/A85S/P86Q): as the sequence (O95372 whole entry) above, with L78I, A85S, P86Q counted along it

For `CCCCCCCC/C=C\CCCCCCCC(=O)OC[C@@H](O)COP(=O)([O-])OCC[N+](C)(C)C` [1-oleoyl-2-hydroxy-sn-glycero-3-phosphocholine], the IC50 at APT2 was 4.3 ± 0.4 µM.

With `COc1ccc(N2CCN(C(=O)c3cc4c(s3)-c3ccccc3[S+]([O-])C4)CC2)cc1` (stereo not drawn) [ML349-sulfoxide], the “binding / inhibition of APT2 (in words)” value on APT2 is listed as “some residual inhibition”. For `CCCCCCCC/C=C\CCCCCCCC(=O)O` [oleic acid], on APT2, the IC50 was 9.9 ± 0.6 µM. The “critical micelle concentration (CMC)” value in series [1] is given as 6 µM. In the case of ML348, the “potency (in words)” value in series [2] is “improved ML348 potency”. In addition, the affinity on APT2-L78I, expressed as Ki, was 5.8 µM.

The values above are taken from paper PMC5359770 (ACS chemical biology, 2016).
